What all share (settings): FGFR binding data
Test [1] deals with T1, FGFR2 (Homo sapiens, UniProt P21802).
T1 construct: made in house; host or cells: E. coli derived from BL21, infected with T7 phage
Nature of the test: Kinase binding assay (kinase-tagged T7 phage, affinity beads, qPCR readout), FGFR2. In a few lines:
(§1)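 Competition binding: kinases displaced from biotinylated-ligand streptavidin beads by test compound in binding buffer (20% SeaBlock, 0.17×PBS, 0.05% Tween 20, 6 mM DTT), 1 hour at room temperature, 0.9% DMSO. Bead-bound kinase eluted with 0.5 μM free ligand, quantified by qPCR. Kd from 11-point 3-fold dilutions, Hill slope fixed at −1.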

Test [2] deals with T2, FGFR3 (Homo sapiens, UniProt P22607).
T2 construct: made in house; host or cells: E. coli derived from BL21, infected with T7 phage
T2 sequence (P22607 23-806): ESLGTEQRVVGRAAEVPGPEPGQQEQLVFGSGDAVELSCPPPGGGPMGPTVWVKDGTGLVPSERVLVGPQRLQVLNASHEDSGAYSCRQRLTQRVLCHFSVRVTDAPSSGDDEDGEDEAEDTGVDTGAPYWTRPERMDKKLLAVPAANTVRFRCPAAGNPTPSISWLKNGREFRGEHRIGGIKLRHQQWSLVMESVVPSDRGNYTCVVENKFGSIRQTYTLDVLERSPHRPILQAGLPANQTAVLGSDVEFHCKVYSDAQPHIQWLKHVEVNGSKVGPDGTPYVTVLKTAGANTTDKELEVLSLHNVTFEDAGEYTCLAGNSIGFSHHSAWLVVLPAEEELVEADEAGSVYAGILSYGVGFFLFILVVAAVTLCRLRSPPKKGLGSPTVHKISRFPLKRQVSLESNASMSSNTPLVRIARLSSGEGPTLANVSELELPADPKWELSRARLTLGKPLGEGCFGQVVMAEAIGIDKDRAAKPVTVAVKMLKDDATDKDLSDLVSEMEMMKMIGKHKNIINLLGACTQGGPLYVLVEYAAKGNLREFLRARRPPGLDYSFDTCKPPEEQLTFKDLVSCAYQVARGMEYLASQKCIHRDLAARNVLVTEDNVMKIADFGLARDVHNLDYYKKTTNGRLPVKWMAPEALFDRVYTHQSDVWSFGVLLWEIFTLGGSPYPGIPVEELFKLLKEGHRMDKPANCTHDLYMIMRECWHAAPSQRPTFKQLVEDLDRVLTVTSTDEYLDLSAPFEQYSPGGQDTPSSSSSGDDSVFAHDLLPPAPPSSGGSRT
The test is described as follows: Kinase binding assay (kinase-tagged T7 phage, affinity beads, qPCR readout), FGFR3. In a few lines:
as §1
Background: Real-time PCR tracks product formation cycle by cycle.

Test [3] addresses T3, FGFR3 (V555M) (Homo sapiens, UniProt P22607, V555M).
T3 construct: made in house; host or cells: E. coli derived from BL21, infected with T7 phage
The test is described as follows: Kinase binding assay (kinase-tagged T7 phage, affinity beads, qPCR readout), FGFR3 (V555M). In a few lines:
as §1

For test [4], the target named is T4, FGFR1 (Homo sapiens, UniProt P11362).
T4 construct: made in house; host or cells: E. coli derived from BL21, infected with T7 phage
T4 sequence (P11362 22-822): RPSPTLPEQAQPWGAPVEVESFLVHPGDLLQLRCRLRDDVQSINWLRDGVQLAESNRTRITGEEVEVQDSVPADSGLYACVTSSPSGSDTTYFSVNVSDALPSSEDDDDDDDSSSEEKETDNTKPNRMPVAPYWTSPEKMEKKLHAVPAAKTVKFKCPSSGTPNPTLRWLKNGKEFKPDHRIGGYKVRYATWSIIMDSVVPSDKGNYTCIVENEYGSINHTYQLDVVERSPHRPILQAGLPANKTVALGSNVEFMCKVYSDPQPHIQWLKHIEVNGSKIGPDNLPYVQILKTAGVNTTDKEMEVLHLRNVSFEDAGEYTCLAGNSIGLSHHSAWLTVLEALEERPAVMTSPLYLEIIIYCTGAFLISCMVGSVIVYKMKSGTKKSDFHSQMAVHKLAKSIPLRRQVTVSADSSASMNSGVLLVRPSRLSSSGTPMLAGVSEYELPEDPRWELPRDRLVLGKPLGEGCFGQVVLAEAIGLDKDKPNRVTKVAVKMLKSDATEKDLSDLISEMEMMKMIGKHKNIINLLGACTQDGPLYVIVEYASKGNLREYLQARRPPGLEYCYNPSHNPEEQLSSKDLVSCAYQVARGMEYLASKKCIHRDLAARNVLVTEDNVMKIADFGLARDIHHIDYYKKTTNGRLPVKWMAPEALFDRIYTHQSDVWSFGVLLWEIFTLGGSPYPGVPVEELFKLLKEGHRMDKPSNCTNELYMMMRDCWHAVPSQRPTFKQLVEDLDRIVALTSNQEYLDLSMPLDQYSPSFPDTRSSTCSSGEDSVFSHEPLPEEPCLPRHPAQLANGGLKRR
The test is described as follows: Kinase binding assay (kinase-tagged T7 phage, affinity beads, qPCR readout), FGFR1. In a few lines: as §1

T3 sequence (P22607 23-806 V555M): as the sequence (P22607 23-806) above, with V533M counted along it
T1 sequence (P21802 22-821): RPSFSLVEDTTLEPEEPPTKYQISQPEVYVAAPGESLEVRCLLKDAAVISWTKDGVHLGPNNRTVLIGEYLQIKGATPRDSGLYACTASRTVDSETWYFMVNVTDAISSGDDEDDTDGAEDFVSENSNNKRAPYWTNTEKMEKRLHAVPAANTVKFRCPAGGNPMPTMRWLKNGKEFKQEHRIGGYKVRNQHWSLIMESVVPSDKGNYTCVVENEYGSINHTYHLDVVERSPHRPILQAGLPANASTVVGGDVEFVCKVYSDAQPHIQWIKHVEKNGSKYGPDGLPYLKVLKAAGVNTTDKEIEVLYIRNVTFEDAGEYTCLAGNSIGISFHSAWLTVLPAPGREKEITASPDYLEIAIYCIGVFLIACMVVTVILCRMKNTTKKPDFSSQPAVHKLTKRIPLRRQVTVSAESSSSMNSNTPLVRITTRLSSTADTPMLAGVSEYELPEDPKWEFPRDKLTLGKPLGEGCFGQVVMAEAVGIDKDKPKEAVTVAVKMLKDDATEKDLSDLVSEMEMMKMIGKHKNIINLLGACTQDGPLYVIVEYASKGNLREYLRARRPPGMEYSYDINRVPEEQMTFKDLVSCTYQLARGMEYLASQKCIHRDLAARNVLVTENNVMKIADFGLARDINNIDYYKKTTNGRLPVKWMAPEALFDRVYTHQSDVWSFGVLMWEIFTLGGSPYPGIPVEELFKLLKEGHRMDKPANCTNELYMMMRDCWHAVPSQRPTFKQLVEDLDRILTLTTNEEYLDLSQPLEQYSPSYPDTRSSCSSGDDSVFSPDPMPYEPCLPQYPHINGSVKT

By Kd is commonly meant the constant that tells how readily two partners part at equilibrium. High values mean weaker binding, low ones tighter binding. Consider `CC#CC(=O)N(C)c1ccc2c(c1)c(C)cn2-c1nc(Nc2ccnn2C)ncc1C` [Example 152, N-methyl-N-[3-methyl-1-[5-methyl-2-[(2-methylpyrazol-3-yl)amino]pyrimidin-4-yl]indol-5-yl]but-2-ynamide], for which the equilibrium dissociation constant (Kd) in test [1], in test [2], in test [3] and in test [4] was above 1000 nM throughout.
Regarding `C=CC(=O)Nc1ccc2c(c1)c(C)cn2-c1nc(Nc2conc2C)ncc1F` [Example 155, N-[1-[5-fluoro-2-[(3-methylisoxazol-4-yl)amino]pyrimidin-4-yl]-3-methyl-indol-5-yl]prop-2-enamide], the Kd in test [1] lay within 0.1 to 100 nM; in test [2], 0.1 to 100 nM; in test [3], 0.1 to 100 nM; in test [4], 100 to 250 nM.
Turning to `C=CC(=O)Nc1ccc2c(c1)c(C)cn2-c1nc(Nc2cccnc2F)ncc1F` [Example 157, N-[1-[5-fluoro-2-[(2-fluoro-3-pyridyl)amino]pyrimidin-4-yl]-3-methyl-indol-5-yl]prop-2-enamide], the equilibrium dissociation constant (Kd) in test [1] lay in the range of 0.1 to 100 nM; in test [2], 0.1 to 100 nM; in test [3], 0.1 to 100 nM; in test [4], 250 to 1000 nM.
Consider `C=CC(=O)Nc1ccc2c(c1)c(C)cn2-c1nc(Nc2cn(C(C)(C)C#N)nc2C)ncc1F` [Example 159, N-[1-[2-[[1-(1-cyano-1-methyl-ethyl)-3-methyl-pyrazol-4-yl]amino]-5-fluoro-pyrimidin-4-yl]-3-methyl-indol-5-yl]prop-2-enamide], for which the dissociation constant (Kd) in test [1], in test [2], in test [3] and in test [4] was 0.1 to 100 nM in each case.
Regarding `C=CC(=O)Nc1ccc2c(c1)c(C)cn2-c1nc(Nc2cc(C)sn2)ncc1F` [Example 161, N-[1-[5-fluoro-2-[(5-methylisothiazol-3-yl)amino]pyrimidin-4-yl]-3-methyl-indol-5-yl]prop-2-enamide], the Kd in test [1], in test [2], in test [3] and in test [4] was 0.1 to 100 nM throughout.
Consider `C=CC(=O)Nc1ccc2c(-c3ccnc(Nc4cnn(CC(F)(F)F)c4)n3)cn(C)c2c1` [Example 168, N-[1-methyl-3-[2-[[1-(2,2,2-trifluoroethyl)pyrazol-4-yl]amino]pyrimidin-4-yl]indol-6-yl]prop-2-enamide], for which the dissociation constant (Kd) in test [1], in test [2], in test [3] and in test [4] was 0.1 to 100 nM throughout.
For the molecule `C=CC(=O)Nc1ccc2c(-c3nc(Nc4cn(CC(F)F)nc4C)ncc3F)cn(C)c2c1` [Example 169, N-[3-[2-[[1-(2,2-difluoroethyl)-3-methyl-pyrazol-4-yl]amino]-5-fluoro-pyrimidin-4-yl]-1-methyl-indol-6-yl]prop-2-enamide], the Kd in test [1] was in the range of 0.1 to 100 nM; in test [2] it was 0.1 to 100 nM; in test [3], 0.1 to 100 nM; in test [4], 250 to 1000 nM.
Consider `C=CC(=O)Nc1ccc2c(-c3ccnc(Nc4cn(CC(F)F)nc4C)n3)cn(C)c2c1` [Example 170, N-[3-[2-[[1-(2,2-difluoroethyl)-3-methyl-pyrazol-4-yl]amino]pyrimidin-4-yl]-1-methyl-indol-6-yl]prop-2-enamide], for which the Kd in test [1] lay in the range of 0.1 to 100 nM; in test [2], 0.1 to 100 nM; in test [3], 0.1 to 100 nM; in test [4] it was 100 to 250 nM.
As to `CCn1cc(Nc2ncc(F)c(-n3cc(C)c4cc(NC(=O)/C=C/CN(C)C)cnc43)n2)c(C)n1` [Example 171, (E)-4-(dimethylamino)-N-[1-[2-[(1-ethyl-3-methyl-pyrazol-4-yl)amino]-5-fluoro-pyrimidin-4-yl]-3-methyl-pyrrolo[2,3-b]pyridin-5-yl]but-2-enamide], the Kd in test [1] lay in the range of 100 to 250 nM; in test [2] it was 0.1 to 100 nM; in test [3] it was 100 to 250 nM; in test [4], 100 to 250 nM.
